Structures can show the parent of a compound that is named as a salt.
What was measured:
[1] = Pharmacokinetic study, oral bioavailability of tamoxifen:HBenBCD complexes; type: in vivo, Sprague-Dawley rats; conditions: male, Sprague-Dawley, rat, plasma, 10 mg/kg
Procedure: 7, 2005, concurrently with this application (no Serial assigned at this time). […] The solid complexes were dissolved in the appropriate amount of water for aqueous oral dosing of animals.
The study animal were male Sprague-Dawley rats. […] Each group was sub-divided into 4 groups of 3 animals on the basis of time of dosing (AM or PM) and diet (fed or fasted). In the case of fasted animals, food was removed 8 hours prior to dosing then returned 5 hours post-dose.
Blood samples (ca. 300 μL) were collected from each animal via the jugular or sublingual vein at 1, 2, 3, 4, 6, 12 and 24 hours post-dose. Plasma was separated and stored in 96 well plates at −17 to −80° C. until analysis. […] Plasma (100 μL) was precipitated with 250 μL of acetonitrile. After centrifugation, the supernatant was analyzed for tamoxifen, hydroxytamoxifen, and desmethyltamoxifen by reversed phase LC-MS-MS using diphenhydramine as an internal standard.
This oral suspension dose was given to fed animals in the AM.
The area under the plasma concentration-time curve (AUC) from time zero to 24 h (AUC0-24h) and from time zero to infinity (AUC0-∞) was calculated by standard methods (Clinical Pharmacokinetics, Malcolm Rowland and Thomas Tozer, Lippincott, Williams, & Wilkins, 1995). Oral bioavailability was determined using the AUC from the IV and oral doses adjusted for the animal dose.

[2] = Initial solubility screening of selected drugs in cyclodextrin derivative:water-miscible organic solvent stock solutions; type: physicochemical; conditions: for grams of stock solution required to solubilize the drug, Stock #2 / grams of stock solution required to solubilize the drug, Stock #3 / grams of stock solution required to solubilize the drug, Stock #1 / grams of stock solution required to solubilize the drug, Stock #5 / grams of stock solution required to solubilize the drug, Stock #6 / grams of stock solution required to solubilize the drug, Stock #4 / grams of stock solution required to solubilize the drug, Stock #7: 20-22 mg drug, raloxifene HCl + ca. 100 mg water, tamoxifen citrate + ca. 40 mg water; for grams of stock solution required to solubilize the drug, Stock #2 / grams of stock solution required to solubilize the drug, Stock #3 / grams of stock solution required to solubilize the drug, Stock #1: HBenβCD5.0 (30 wt %); for grams of stock solution required to solubilize the drug, Stock #2 / grams of stock solution required to solubilize the drug, Stock #3: PEG 400 (66.2 wt %); for grams of stock solution required to solubilize the drug, Stock #2: EtOH (3.8 wt %); for grams of stock solution required to solubilize the drug, Stock #3: PG (3.8 wt %); for grams of stock solution required to solubilize the drug, Stock #1: PEG 400 (70 wt %); for grams of stock solution required to solubilize the drug, Stock #5 / grams of stock solution required to solubilize the drug, Stock #6 / grams of stock solution required to solubilize the drug, Stock #4: HBenβCD6.6 (32 wt %); for grams of stock solution required to solubilize the drug, Stock #5 / grams of stock solution required to solubilize the drug, Stock #6: PEG 400 (64.6 wt %); for grams of stock solution required to solubilize the drug, Stock #5 / grams of stock solution required to solubilize the drug, Stock #7: EtOH (3.4 wt %); for grams of stock solution required to solubilize the drug, Stock #6: PG (3.4 wt %); for grams of stock solution required to solubilize the drug, Stock #4: PEG 400 (68 wt %); for grams of stock solution required to solubilize the drug, Stock #7: SulfoHBenCD (29 wt %), PEG 400 (67.6 wt %); for amount of stock solutions in which the drug was soluble: after mixing for ca. 48 h, all stock solutions
Procedure: In the following experiments, the water-miscible solvents were dried as described in example 1. The hydroxybutenyl-β-cyclodextrins (HBenβCD6.6 and HBenβCD5.0) and the sulfonated hydroxybutenyl-β-cyclodextrins (MSsulfonate=0.3, MSbutentyl=4.4) were carefully dried prior to use. The following stock solutions were prepared:
2. HBenβCD5.0 (30 wt %), PEG 400 (66.2 wt %), and EtOH (3.8 wt %)
7. SulfoHBenCD (29 wt %), PEG 400 (67.6 wt %), and EtOH (3.4 wt %)
Various drugs (20-22 mg) were weighed into different glass vials with screw caps. To each vial was added 1 gram (g) ±0.02 g of stock solution. The vial contents were mixed for ca. 48 h. Vials were inspected visually to determine whether the drugs were dissolved.

Structure (SMILES) | bioavailability [1] | grams of stock solution required to solubilize the drug, Stock #2 [2] | grams of stock solution required to solubilize the drug, Stock #3 [2] | grams of stock solution required to solubilize the drug, Stock #1 [2] | grams of stock solution required to solubilize the drug, Stock #5 [2] | grams of stock solution required to solubilize the drug, Stock #6 [2] | grams of stock solution required to solubilize the drug, Stock #4 [2] | grams of stock solution required to solubilize the drug, Stock #7 [2] | amount of stock solutions in which the drug was soluble [2]
CC/C(=C(\c1ccccc1)c1ccc(OCCN(C)C)cc1)c1ccccc1 [Tamoxifen] | 5% | – | – | – | – | – | – | – | –
CC(=O)O[C@H]1C(=O)[C@@]2(C)[C@H]([C@H](OC(=O)c3ccccc3)[C@]3(O)C[C@H](OC(=O)[C@H](O)[C@@H](NC(=O)c4ccccc4)c4ccccc4)C(C)=C1C3(C)C)[C@]1(OC(C)=O)CO[C@@H]1C[C@@H]2O [Paclitaxel] | – | 1.0 grams | 1.0 grams | 1.0 grams | 1.0 grams | 1.0 grams | 1.0 grams | 1.0 grams | 1 g
C=C1C[C@@H]2[C@H](CC[C@]3(C)C(=O)CC[C@@H]23)[C@@]2(C)C=CC(=O)C=C12 [Exemestane] | – | 1.5 grams | 1.5 grams | 1.5 grams | 1.5 grams | 1.5 grams | 1.5 grams | 1.5 grams | –
O=C(c1ccc(OCCN2CCCCC2)cc1)c1c(-c2ccc(O)cc2)sc2cc(O)ccc12 [Raloxifene HCL] | – | 1.4 grams | 1.6 grams | 1.5 grams | 1.6 grams | 1.6 grams | 1.6 grams | 1.1 grams | –
CC(C)(C#N)c1cc(Cn2cncn2)cc(C(C)(C)C#N)c1 [Anastrozole] | – | 1.0 grams | 1.0 grams | 1.0 grams | 1.0 grams | 1.0 grams | 1.0 grams | 1.0 grams | 1 g
